Data from ChEMBL document CHEMBL1156102, “Identification of iminooxothiazolidines as secreted frizzled related protein-1 inhibitors” (Bioorg Med Chem Lett, 2009).
Calls of active or inactive are those of the source. The rule behind the calls is not given here.

How the values were obtained:
[1] = target: T1, Secreted frizzled-related protein 1 (Homo sapiens) (UniProt Q8N474); assay: Inhibition of human SFRP1 transfected in human U20S cells at 15 uM by TCF-luciferase reporter gene assay relative to control; type: cell-based; conditions: U2OS
T1 sequence (whole entry): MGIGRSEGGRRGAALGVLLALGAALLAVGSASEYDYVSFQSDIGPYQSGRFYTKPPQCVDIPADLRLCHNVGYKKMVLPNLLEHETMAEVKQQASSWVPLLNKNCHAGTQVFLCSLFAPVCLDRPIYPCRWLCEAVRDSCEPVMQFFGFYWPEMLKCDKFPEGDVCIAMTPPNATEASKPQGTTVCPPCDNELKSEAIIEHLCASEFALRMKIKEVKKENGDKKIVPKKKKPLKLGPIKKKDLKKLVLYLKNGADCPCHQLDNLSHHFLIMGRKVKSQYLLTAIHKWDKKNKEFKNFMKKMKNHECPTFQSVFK

[2] = target: T1, Secreted frizzled-related protein 1 (Homo sapiens); assay: Inhibition of human SFRP1 transfected in human U20S cells at 30 uM by TCF-luciferase reporter gene assay relative to control; type: cell-based; conditions: U2OS
Mus musculus [3] = species on record: Mus musculus; assay: Ex vivo osteogenic activity in mouse calvaria assessed in increase in osteoblasts number at 15 uM; type: functional
Mus musculus [4] = species on record: Mus musculus; assay: Ex vivo osteogenic activity in mouse calvaria assessed in increase in total bone area at 15 uM; type: functional
[5] = target: Secreted frizzled-related protein 1 (Homo sapiens) (UniProt Q8N474); assay: Inhibition of human SFRP1
[6] = target: T2, Secreted frizzled-related protein 1 (Homo sapiens, UniProt Q8N474); assay: Binding affinity to human SFRP1 by fluorescence spectroscopy
T2 sequence (Q8N474 whole entry): T1 sequence (whole entry)

[7] = target: Proto-oncogene Wnt-3 (Homo sapiens) (UniProt P56703); assay: Binding affinity to Wnt3
[8] = target: T2, Secreted frizzled-related protein 1; assay: Inhibition of human SFRP1 transfected in human U20S cells by TCF-luciferase reporter gene assay; type: cell-based, U2OS

Proto-oncogene Wnt-3 (Homo sapiens), sequence (P56703 whole entry): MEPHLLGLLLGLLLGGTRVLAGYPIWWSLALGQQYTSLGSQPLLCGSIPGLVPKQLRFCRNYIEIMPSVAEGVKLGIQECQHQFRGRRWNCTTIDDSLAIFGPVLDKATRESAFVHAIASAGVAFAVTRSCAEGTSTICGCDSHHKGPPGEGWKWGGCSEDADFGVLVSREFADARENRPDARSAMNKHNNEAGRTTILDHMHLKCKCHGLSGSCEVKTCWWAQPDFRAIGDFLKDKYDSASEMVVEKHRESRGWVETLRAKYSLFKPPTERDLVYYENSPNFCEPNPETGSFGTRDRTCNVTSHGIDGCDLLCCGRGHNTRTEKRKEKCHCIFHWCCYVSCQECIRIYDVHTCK

fold change (FC) [1]	Structure (SMILES)	further results
1.1	CCOC(=O)c1ccccc1NC(=O)CC1SC(=N)NC1=O (stereo unspecified)	–
1	CCOC(=O)c1c(NC(=O)CC2SC(=O)NC2=O)sc2c1CCCC2 (stereo unspecified)	–
1.9	CCOC(=O)c1c(NC(=O)CC2SC(=N)NC2=O)sc2c1CCCCC2 (stereo unspecified)	–
1.2	N#Cc1c(NC(=O)CC2SC(=N)NC2=O)sc2c1CCCC2 (stereo unspecified)	–
0.9	COC(=O)c1cc(-c2ccccc2)sc1NC(=O)CC1SC(=N)NC1=O (stereo unspecified)	–
1.1	N=C1NC(=O)C(CC(=O)Nc2sc3c(c2C(N)=O)CCCC3)S1 (stereo unspecified)	–
–	CCOC(=O)c1cccc(NC(=O)CC2SC(=N)NC2=O)c1 (stereo unspecified)	fold change (FC) [2]: 1.5
2.5	CCOC(=O)c1c(NC(=O)CC2SC(=N)NC2=O)sc(Br)c1CNc1ccccc1 (stereo unspecified)	–
2	CCOC(=O)c1c(C)csc1NC(=O)CC1SC(=N)NC1=O (stereo unspecified)	–
–	N=C1NC(=O)C(CC(=O)Nc2cccc(Cl)c2)S1 (stereo unspecified)	fold change (FC) [2]: 1.7
1.2	CC/N=C1\NC(=O)C(CC(=O)Nc2sc(C)c(C)c2C(=O)OCC)S1 (stereo unspecified)	–
2.6	CCOC(=O)c1c(NC(=O)CC2SC(=N)NC2=O)sc(Br)c1C (stereo unspecified)	–
1.5	CCOC(=O)c1c(NC(=O)CC2SC(=N)NC2=O)sc2c1CCC2 (stereo unspecified)	–
–	N=C1NC(=O)C(CC(=O)Nc2ccccc2)S1 (stereo unspecified)	fold change (FC) [2]: 1.1
–	N=C1NC(=O)C(CC(=O)Nc2cccc(Cl)c2Cl)S1 (stereo unspecified)	fold change (FC) [2]: 1
1.2	COC(=O)c1ccsc1NC(=O)CC1SC(=N)NC1=O (stereo unspecified)	–
2.3	CCOC(=O)c1c(NC(=O)CC2SC(=N)NC2=O)sc(C)c1C (stereo unspecified)	Activity (Mus musculus [3]): Active; Activity (Mus musculus [4]): Active
1.2	CCOC(=O)c1c(NC(=O)CC2S/C(=N/C)N(C)C2=O)sc(C)c1C (stereo unspecified)	–
–	N=C1NC(=O)C(CC(=O)NCc2cccc(Cl)c2)S1 (stereo unspecified)	fold change (FC) [2]: 1
1.7	CCOC(=O)c1cc(CC)sc1NC(=O)CC1SC(=N)NC1=O (stereo unspecified)	–
1.8	CCOC(=O)c1c(NC(=O)CC2SC(=N)NC2=O)sc(C)c1-c1ccccc1 (stereo unspecified)	–
1.6	CCOC(=O)c1c(NC(=O)CC2SC(=N)NC2=O)sc2c1CCCC2 (stereo unspecified)	–
0.8	CCOC(=O)c1c(NC(=O)CC2SC(=N)NC2=O)sc(-c2ccccc2)c1C (stereo unspecified)	–
1.2	CCOC(=O)c1c(NC(=O)CC2S/C(=N/C)NC2=O)sc(C)c1C (stereo unspecified)	–
1.9	COC(=O)c1c(NC(=O)CC2SC(=N)NC2=O)sc(C)c1C (stereo unspecified)	Activity [5]: Active; Kd [6]: 720 nM; Activity [7]: Active; EC50 [8]: 7.2 µM
